Assay results reported in patent publication US12172995B2, “Substituted indole and indazole compounds” (BRISTOL-MYERS SQUIBB COMPANY, priority 2018, dated 2024).
pIC50: −log10 of the molar value.

Key:
Type in all cases: cell-based
human TLR9 = target: T1, human TLR9 (Homo sapiens, UniProt Q9NR96); assay: TLR9 inhibition reporter assay (HEK-Blue SEAP); details: HEK-Blue cells overexpressing human TLR9, stimulated with ODN2006 5 nM, 22 hour incubation
T1 construct: host or cells: HEK-Blue cells
T1 sequence (Q9NR96 26-1032): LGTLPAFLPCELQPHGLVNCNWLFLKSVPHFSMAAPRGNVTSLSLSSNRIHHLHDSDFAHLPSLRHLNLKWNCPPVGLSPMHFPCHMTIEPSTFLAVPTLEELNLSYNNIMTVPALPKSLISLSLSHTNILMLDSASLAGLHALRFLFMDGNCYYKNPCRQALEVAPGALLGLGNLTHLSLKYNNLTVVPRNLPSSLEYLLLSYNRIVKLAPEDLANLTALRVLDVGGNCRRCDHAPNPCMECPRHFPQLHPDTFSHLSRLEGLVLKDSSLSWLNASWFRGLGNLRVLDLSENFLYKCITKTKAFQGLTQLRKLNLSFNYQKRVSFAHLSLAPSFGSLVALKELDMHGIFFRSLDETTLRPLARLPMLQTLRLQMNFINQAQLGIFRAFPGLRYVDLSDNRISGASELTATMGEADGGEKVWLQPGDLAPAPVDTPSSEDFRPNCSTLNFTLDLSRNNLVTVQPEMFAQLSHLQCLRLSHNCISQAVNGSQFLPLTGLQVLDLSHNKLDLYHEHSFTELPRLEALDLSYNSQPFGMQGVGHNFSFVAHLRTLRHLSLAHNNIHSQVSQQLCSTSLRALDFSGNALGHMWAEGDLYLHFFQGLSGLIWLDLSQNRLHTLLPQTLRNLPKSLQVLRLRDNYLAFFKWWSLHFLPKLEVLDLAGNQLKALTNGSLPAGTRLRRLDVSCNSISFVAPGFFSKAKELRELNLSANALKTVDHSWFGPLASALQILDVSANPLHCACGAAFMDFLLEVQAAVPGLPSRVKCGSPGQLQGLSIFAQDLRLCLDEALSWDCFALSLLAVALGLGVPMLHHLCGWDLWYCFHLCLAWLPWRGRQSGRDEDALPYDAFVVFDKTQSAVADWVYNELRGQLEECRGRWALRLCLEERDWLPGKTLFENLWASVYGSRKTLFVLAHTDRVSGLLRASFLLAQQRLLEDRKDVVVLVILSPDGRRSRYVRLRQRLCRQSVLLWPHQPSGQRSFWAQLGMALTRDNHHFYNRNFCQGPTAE
Method in brief: (§1)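 Cells are seeded, given test compound across 0.05 nM to 50 μM, and after 30 min at room temperature stimulated with the receptor's agonist (gardiquimod 7.5 μM, R848 15.9 μM or ODN2006 5 nM for TLR7, 8, 9). SEAP is measured after 22 h at 37 °C.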

human TLR7 = target: T2, human TLR7 (Homo sapiens, UniProt Q9NYK1); assay: TLR7 inhibition reporter assay (HEK-Blue SEAP); details: HEK-Blue cells overexpressing human TLR7, stimulated with gardiquimod 7.5 μM, 22 hour incubation
T2 construct: host or cells: HEK-Blue cells
T2 sequence (Q9NYK1 27-1049): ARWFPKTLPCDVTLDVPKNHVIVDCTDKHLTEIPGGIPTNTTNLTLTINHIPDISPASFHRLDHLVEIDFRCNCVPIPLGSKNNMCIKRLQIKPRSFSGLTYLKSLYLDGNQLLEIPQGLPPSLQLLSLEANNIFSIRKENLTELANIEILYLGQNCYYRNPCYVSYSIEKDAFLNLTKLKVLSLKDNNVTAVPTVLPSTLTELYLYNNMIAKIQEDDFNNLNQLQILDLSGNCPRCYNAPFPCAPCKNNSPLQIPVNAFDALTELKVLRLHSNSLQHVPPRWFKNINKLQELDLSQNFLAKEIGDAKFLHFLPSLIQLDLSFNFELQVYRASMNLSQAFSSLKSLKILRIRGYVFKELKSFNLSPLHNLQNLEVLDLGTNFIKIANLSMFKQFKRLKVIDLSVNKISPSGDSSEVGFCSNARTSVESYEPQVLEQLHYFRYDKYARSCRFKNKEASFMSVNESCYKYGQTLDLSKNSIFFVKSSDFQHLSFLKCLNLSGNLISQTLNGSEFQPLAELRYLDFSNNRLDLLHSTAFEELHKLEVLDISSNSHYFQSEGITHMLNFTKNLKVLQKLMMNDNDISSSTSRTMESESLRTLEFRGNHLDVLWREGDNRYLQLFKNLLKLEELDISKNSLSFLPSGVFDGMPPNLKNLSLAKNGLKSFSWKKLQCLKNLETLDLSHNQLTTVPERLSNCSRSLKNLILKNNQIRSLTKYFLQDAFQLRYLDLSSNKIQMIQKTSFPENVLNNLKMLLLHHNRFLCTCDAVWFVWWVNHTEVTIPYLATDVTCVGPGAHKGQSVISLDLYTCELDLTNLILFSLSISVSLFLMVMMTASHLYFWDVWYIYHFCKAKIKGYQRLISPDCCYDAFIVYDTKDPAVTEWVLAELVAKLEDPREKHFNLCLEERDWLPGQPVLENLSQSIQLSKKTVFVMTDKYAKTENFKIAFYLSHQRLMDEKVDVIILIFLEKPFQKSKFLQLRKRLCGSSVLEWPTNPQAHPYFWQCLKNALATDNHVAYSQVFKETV
Method in brief: as §1

human TLR8 = target: T3, human TLR8 (Homo sapiens, UniProt Q9NR97); assay: TLR8 inhibition reporter assay (HEK-Blue SEAP); details: HEK-Blue cells overexpressing human TLR8, stimulated with R848 15.9 μM, 22 hour incubation
T3 construct: host or cells: HEK-Blue cells
T3 sequence (Q9NR97 27-1041): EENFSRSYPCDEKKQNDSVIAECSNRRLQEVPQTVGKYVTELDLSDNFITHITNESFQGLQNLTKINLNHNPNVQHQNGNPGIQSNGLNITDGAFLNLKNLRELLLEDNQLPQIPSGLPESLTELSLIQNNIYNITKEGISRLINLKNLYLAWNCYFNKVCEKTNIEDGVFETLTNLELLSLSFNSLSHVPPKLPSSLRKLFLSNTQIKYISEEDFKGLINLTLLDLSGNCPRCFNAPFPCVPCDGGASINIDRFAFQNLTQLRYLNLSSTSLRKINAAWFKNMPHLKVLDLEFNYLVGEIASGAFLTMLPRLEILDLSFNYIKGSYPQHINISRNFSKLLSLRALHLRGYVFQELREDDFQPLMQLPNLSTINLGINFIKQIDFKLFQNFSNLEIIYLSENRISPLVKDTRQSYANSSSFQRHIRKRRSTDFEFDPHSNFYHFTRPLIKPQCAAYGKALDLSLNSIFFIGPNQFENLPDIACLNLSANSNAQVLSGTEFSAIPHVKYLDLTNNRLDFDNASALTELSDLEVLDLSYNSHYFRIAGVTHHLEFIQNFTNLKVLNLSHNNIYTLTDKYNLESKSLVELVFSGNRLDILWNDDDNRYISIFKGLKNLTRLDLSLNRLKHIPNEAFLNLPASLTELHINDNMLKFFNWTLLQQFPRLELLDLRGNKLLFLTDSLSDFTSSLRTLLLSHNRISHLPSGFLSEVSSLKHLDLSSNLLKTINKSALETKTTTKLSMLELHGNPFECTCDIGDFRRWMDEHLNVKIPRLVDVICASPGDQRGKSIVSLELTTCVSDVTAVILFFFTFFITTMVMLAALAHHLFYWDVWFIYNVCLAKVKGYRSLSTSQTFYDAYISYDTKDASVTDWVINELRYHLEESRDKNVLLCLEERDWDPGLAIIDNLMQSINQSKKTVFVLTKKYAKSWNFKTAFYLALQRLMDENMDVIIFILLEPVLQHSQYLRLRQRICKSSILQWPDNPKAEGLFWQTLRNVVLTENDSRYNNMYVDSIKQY
Method in brief: as §1

| Molecule | pIC50 (human TLR9) | pIC50 (human TLR7) | pIC50 (human TLR8) |
| --- | --- | --- | --- |
| Cc1cc2c(C3CCC(NC(C)C)CC3)n[nH]c2cc1-c1cc(C)c2ncnn2c1 (single isomer, unassigned) [Example 39, N-isopropyl-4-(5-methyl-6-(8-methyl-[1,2,4]triazolo[1,5-a]pyridin-6-yl)-1H-indazol-3-yl) cyclohexan-1-amine] | 5.39 | 7.65 | 9.05 |
| Cc1cc(-c2cc(C)c3ncnn3c2)cc2[nH]nc(OC3CCNCC3)c12 [Example 174, 8-methyl-6-(4-methyl-3-(piperidin-4-yloxy)-1H-indazol-6-yl)-[1,2,4]triazolo[1,5-a]pyridine] | 6.36 | 8.74 | 8.85 |
| Cc1cc(-c2cc3[nH]nc(C4CCN(C5COC5)CC4)c3cc2C(C)C)cn2ncnc12 [Example 120, 6-(5-isopropyl-3-(1-(oxetan-3-yl)piperidin-4-yl)-1H-indazol-6-yl)-8-methyl-[1,2,4]triazolo[1,5-a]pyridine] | ≤ 4.30 | 8.13 | 8.96 |
| CCc1cc2c(OC3CCC(N(C)C)CC3)n[nH]c2cc1-c1cc(C)c2ncnn2c1 (single isomer, unassigned) [Example 192, 4-((5-ethyl-6-(8-methyl-[1,2,4]triazolo[1,5-a]pyridin-6-yl)-1H-indazol-3-yl)oxy)-N,N-dimethylcyclohexan-1-amine] | 5.10 | 9.15 | 10.00 |
| COc1cc(-c2cc3[nH]nc(C4CCN(C(=O)CN(C)C)CC4)c3cc2C(C)C)cn2ncnc12 [Example 117, 2-(dimethylamino)-1-(4-(5-isopropyl-6-(8-methoxy-[1,2,4]triazolo[1,5-a]pyridin-6-yl)-1H-indazol-3-yl)piperidin-1-yl)ethan-1-one] | 4.95 | 8.47 | 9.30 |
| Cc1cc(-c2ccc3c(C(=O)NC4CCNCC4)c[nH]c3c2)cn2ncnc12 [Example 198, 6-(8-methyl-[1,2,4]triazolo[1,5-a]pyridin-6-yl)-N-(piperidin-4-yl)-1H-indole-3-carboxamide] | 5.04 | 6.31 | 6.23 |
| CCc1cc2c(C3CCN(C(=O)CN(C)C)CC3)n[nH]c2cc1-c1cc(C)c2ncnn2c1 [Example 87, 2-(dimethylamino)-1-(4-(5-ethyl-6-(8-methyl-[1,2,4]triazolo[1,5-a]pyridin-6-yl)-1H-indazol-3-yl)piperidin-1-yl)ethan-1-one] | 4.93 | 8.20 | 9.22 |
| Cc1cc(-c2cc3[nH]nc(C4CCC(N5CC6(CCOC6)C5)CC4)c3cc2C(C)C)cn2ncnc12 (stereo not drawn) [Example 157, 2-(4-(5-isopropyl-6-(8-methyl-[1,2,4]triazolo[1,5-a]pyridin-6-yl)-1H-indazol-3-yl)cyclohexyl)-6-oxa-2-azaspiro[3.4]octane] | 5.17 | 9.30 | 9.40 |
| CCOC1CN(C2CCC(c3n[nH]c4cc(-c5cc(C)c6ncnn6c5)c(C(C)C)cc34)CC2)C1 (single isomer, unassigned) [Example 150, 6-(3-(4-(3-ethoxyazetidin-1-yl)cyclohexyl)-5-isopropyl-1H-indazol-6-yl)-8-methyl-[1,2,4]triazolo[1,5-a]pyridine] | 5.16 | 8.77 | 10.00 |
| Cc1cc2c(C3CCN(CC(=O)N(C)C)CC3)n[nH]c2cc1-c1cc(C)c2ncnn2c1 [Example 23, N,N-dimethyl-2-(4-(5-methyl-6-(8-methyl-[1,2,4]triazolo[1,5-a]pyridin-6-yl)-1H-indazol-3-yl)piperidin-1-yl)acetamide] | 5.18 | 7.36 | 8.54 |
| Cc1cc2c(C3CCC(NC4CC4)CC3)n[nH]c2cc1-c1cc(C)c2ncnn2c1 (stereo not drawn) [Example 36, N-cyclopropyl-4-(5-methyl-6-(8-methyl-[1,2,4]triazolo[1,5-a]pyridin-6-yl)-1H-indazol-3-yl) cyclohexan-1-amine] | 5.48 | 8.15 | 9.70 |
| Cc1cc(-c2cc3[nH]nc(C4CCC(N5CC(F)C5)CC4)c3cc2C(C)C)cn2ncnc12 (stereo not drawn) [Example 151, 6-(3-(4-(3-fluoroazetidin-1-yl)cyclohexyl)-5-isopropyl-1H-indazol-6-yl)-8-methyl-[1,2,4]triazolo[1,5-a]pyridine] | 5.08 | 8.85 | 9.22 |
| 5-methyl-6-(8-methyl-[1,2,4]triazolo[1,5-a]pyridin-6-yl)-N-(piperidin-4-yl)-1H-indazol-3-amine [Example 203] | 5.85 | 7.29 | 8.68 |
| Cc1cc2c(C3CCCN(C(=O)CN(C)C)C3)n[nH]c2cc1-c1cc(C)c2ncnn2c1 (stereo not drawn) [Example 54, 2-(dimethylamino)-1-(3-(5-methyl-6-(8-methyl-[1,2,4]triazolo[1,5-a]pyridin-6-yl)-1H-indazol-3-yl)piperidin-1-yl)ethan-1-one] | 5.28 | 7.39 | 8.19 |
